According to PubChem BioAssay (NCI):
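Tested at 5 concentrations; 48 h exposure; 96-well plates; endpoints linearly interpolated, else capped at highest concentration. GI50 marks 50% less growth. TGI: total growth inhibition.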

Columns and labels:
Assay in all cases: DTP human tumour cell line panel, 48 h
[1] = test system: EKVX NSCLC
[2] = test system: NCI-H226 lung
[3] = test system: MDA-MB-231 breast
[4] = test system: SK-OV-3 ovarian
[5] = test system: SK-MEL-2 melanoma
[6] = test system: A549 NSCLC
[7] = test system: SW-620 colon
[8] = test system: OVCAR-5 ovarian
[9] = test system: ACHN renal
[10] = test system: SNB-19 CNS
[11] = test system: SF-539 CNS
[12] = test system: SK-MEL-28 melanoma
[13] = test system: SNB-75 CNS
[14] = test system: SR leukemia
[15] = test system: MDA-MB-435
[16] = test system: OVCAR-4 ovarian
[17] = test system: MOLT-4 leukemia
[18] = test system: A498 renal
[19] = test system: MCF7 breast
[20] = test system: U251 CNS
[21] = test system: OVCAR-8 ovarian
[22] = test system: NCI-H460 lung
[23] = test system: NCI/ADR-RES ovarian
[24] = test system: CAKI-1 renal
[25] = test system: RPMI-8226 leukemia
[26] = test system: OVCAR-3 ovarian
[27] = test system: SF-295 CNS
[28] = test system: PC-3 prostate
[29] = test system: HOP-92 NSCLC
[30] = test system: NCI-H23 lung
[31] = test system: HT29 colon
[32] = test system: UACC-62 melanoma
[33] = test system: K-562 leukemia
[34] = test system: SN12C renal
[35] = test system: HCT-15 colon
[36] = test system: KM12 colon
[37] = test system: MALME-3M melanoma
[38] = test system: UACC-257 melanoma
[39] = test system: IGROV1 ovarian
[40] = test system: M14 melanoma
[41] = test system: SF-268 CNS
[42] = test system: CCRF-CEM leukemia
[43] = test system: TK-10 renal
[44] = test system: HCC-2998 colon
[45] = test system: DU-145 prostate
[46] = test system: BT-549 breast
[47] = test system: COLO 205 colon
[48] = test system: NCI-H522 lung
[49] = test system: HL-60(TB) leukemia
[50] = test system: HOP-62 NSCLC
[51] = test system: 786-0 renal
[52] = test system: LOX IMVI melanoma
[53] = test system: SK-MEL-5 melanoma
[54] = test system: RXF 393 renal
[55] = test system: HCT-116 colon
[56] = test system: UO-31 renal
[57] = test system: HS 578T breast
[58] = test system: T-47D breast

Compound Cc1cc(C)c(O)c(CNCCCCCCNCc2cc(C)cc(C)c2O)c1 has a GI50 [1] of 1740 nM, a TGI [1] of 3.65 µM and a GI50 [2] of 1830 nM. For the same compound, the TGI [2] was 3.72 µM, the GI50 [3] was 1380 nM and the TGI [3] was 2.9 µM. The GI50 [4] was 1830 nM, the TGI [4] was 3.67 µM and the GI50 [5] was 1910 nM. The TGI [5] was 3.67 µM, the GI50 [6] was 2230 nM and the TGI [6] was 4.72 µM. It also gave a GI50 [7] of 1810 nM, a TGI [7] of 3.56 µM and a GI50 [8] of 1.82 µM. The TGI [8] was 4.31 µM, the GI50 [9] was 1910 nM and the TGI [9] was 3.69 µM. For the same compound, the GI50 [10] was 1.98 µM, the TGI [10] was 4.59 µM and the GI50 [11] was 1620 nM. For the same compound, the TGI [11] was 3.17 µM, the GI50 [12] was 1660 nM and the TGI [12] was 3.28 µM. The GI50 [13] was 1330 nM, the TGI [13] was 2.63 µM and the GI50 [14] was 1340 nM. It also gave a TGI [14] of 3.84 µM, a GI50 [15] of 1430 nM and a TGI [15] of 2.81 µM. It also gave a GI50 [16] of 1.51 µM, a TGI [16] of 3.75 µM and a GI50 [17] of 1720 nM. The TGI [17] was 3.9 µM, the GI50 [18] was 1320 nM and the TGI [18] was 3.15 µM. It also gave a GI50 [19] of 1540 nM, a TGI [19] of 3.22 µM and a GI50 [20] of 1580 nM. It also gave a TGI [20] of 3.07 µM, a GI50 [21] of 2200 nM and a TGI [21] of 5.01 µM. For the same compound, the GI50 [22] was 1890 nM, the TGI [22] was 3.58 µM and the GI50 [23] was 1.85 µM. For the same compound, the TGI [23] was 3.86 µM, the GI50 [24] was 1970 nM and the TGI [24] was 4.49 µM. For the same compound, the GI50 [25] was 1940 nM, the TGI [25] was 4.96 µM and the GI50 [26] was 1640 nM. The TGI [26] was 3.42 µM, the GI50 [27] was 1780 nM and the TGI [27] was 3.46 µM. The GI50 [28] was 1990 nM, the TGI [28] was 4.28 µM and the GI50 [29] was 1250 nM. The TGI [29] was 4.01 µM, the GI50 [30] was 1700 nM and the TGI [30] was 3.28 µM. It also gave a GI50 [31] of 1730 nM, a TGI [31] of 3.82 µM and a GI50 [32] of 1820 nM. For the same compound, the TGI [32] was 3.41 µM, the GI50 [33] was 1610 nM and the TGI [33] was 3.55 µM. For the same compound, the GI50 [34] was 1830 nM, the TGI [34] was 3.92 µM and the GI50 [35] was 1400 nM. The TGI [35] was 3.05 µM, the GI50 [36] was 1820 nM and the TGI [36] was 3.51 µM. It also gave a GI50 [37] of 1600 nM, a TGI [37] of 3.17 µM and a GI50 [38] of 2.07 µM. The TGI [38] was 4.13 µM, the GI50 [39] was 1680 nM and the TGI [39] was 3.49 µM. The GI50 [40] was 1720 nM, the TGI [40] was 3.59 µM and the GI50 [41] was 1610 nM. For the same compound, the TGI [41] was 3.36 µM, the GI50 [42] was 2190 nM and the TGI [42] was 5.72 µM. For the same compound, the GI50 [43] was 1390 nM, the TGI [43] was 2.92 µM and the GI50 [44] was 1020 nM. It also gave a TGI [44] of 2.39 µM, a GI50 [45] of 1700 nM and a TGI [45] of 3.3 µM. For the same compound, the GI50 [46] was 2240 nM, the TGI [46] was 5.52 µM and the GI50 [47] was 1670 nM. For the same compound, the TGI [47] was 3.32 µM, the GI50 [48] was 1780 nM and the TGI [48] was 3.67 µM. The GI50 [49] was 1840 nM, the TGI [49] was 3.77 µM and the GI50 [50] was 1770 nM. The TGI [50] was 3.6 µM, the GI50 [51] was 1420 nM and the TGI [51] was 2.92 µM. The GI50 [52] was 1480 nM, the TGI [52] was 2.88 µM and the GI50 [53] was 1610 nM. The TGI [53] was 3.09 µM, the GI50 [54] was 1590 nM and the TGI [54] was 3.08 µM. For the same compound, the GI50 [55] was 1730 nM, the TGI [55] was 3.43 µM and the GI50 [56] was 1420 nM. It also gave a TGI [56] of 2.83 µM, a GI50 [57] of 1650 nM and a TGI [57] of 3.88 µM. The GI50 [58] was 1500 nM and the TGI [58] was 3.36 µM.
O=C(NC1CC1)c1ccc(-c2nc3ccc4[nH]ncc4c3c3c2CCCC3)cc1 was tested, and the GI50 [1] was 1330 nM, the TGI [1] was 12.2 µM and the GI50 [2] was 3410 nM. It also gave a TGI [2] of 47.6 µM, a GI50 [3] of 2060 nM and a TGI [3] of 31.8 µM. It also gave a GI50 [5] of 1760 nM, a TGI [5] of 7.36 µM and a GI50 [6] of 1630 nM. The TGI [6] was > 50 µM, the GI50 [7] was 1410 nM and the TGI [7] was 10.3 µM. For the same compound, the GI50 [8] was 7.3 µM, the TGI [8] was 47.6 µM and the GI50 [9] was 1030 nM. The TGI [9] was > 50 µM, the GI50 [10] was 4.47 µM and the TGI [10] was > 50 µM. The GI50 [11] was 1320 nM, the TGI [11] was 6.68 µM and the GI50 [12] was 2300 nM. It also gave a TGI [12] of 12.1 µM, a GI50 [13] of 1540 nM and a TGI [13] of 4.87 µM. It also gave a GI50 [14] of 987 nM, a TGI [14] of 6.02 µM and a GI50 [15] of 1380 nM. The TGI [15] was 5.02 µM, the GI50 [16] was 4.62 µM and the TGI [16] was > 50 µM. It also gave a GI50 [17] of 1750 nM, a TGI [17] of 20.1 µM and a GI50 [18] of 1030 nM. The TGI [18] was 5.01 µM, the GI50 [19] was 1440 nM and the TGI [19] was 9.57 µM. The GI50 [20] was 2190 nM, the TGI [20] was 13.7 µM and the GI50 [21] was 2340 nM. For the same compound, the TGI [21] was > 50 µM, the GI50 [22] was 2050 nM and the TGI [22] was 12.2 µM. The GI50 [23] was 6.56 µM, the TGI [23] was > 50 µM and the GI50 [25] was 1080 nM. For the same compound, the TGI [25] was 12 µM, the GI50 [26] was 4040 nM and the TGI [26] was 15.8 µM. It also gave a GI50 [27] of 2240 nM, a TGI [27] of 13.6 µM and a GI50 [28] of 2290 nM. For the same compound, the TGI [28] was 29.7 µM, the GI50 [29] was 1450 nM and the TGI [29] was 25.2 µM. It also gave a GI50 [30] of 3410 nM, a TGI [30] of 31.3 µM and a GI50 [31] of 2050 nM. The TGI [31] was > 50 µM, the GI50 [32] was 2190 nM and the TGI [32] was 9.77 µM. The GI50 [33] was 1950 nM, the TGI [33] was > 50 µM and the GI50 [34] was 2240 nM. For the same compound, the TGI [34] was 20.7 µM, the GI50 [35] was 1580 nM and the TGI [35] was 13.9 µM. For the same compound, the GI50 [36] was 1510 nM, the TGI [36] was 9.65 µM and the GI50 [37] was 3460 nM. It also gave a TGI [37] of 11.6 µM, a GI50 [38] of 9.1 µM and a TGI [38] of 34.7 µM. The GI50 [39] was 989 nM, the TGI [39] was > 50 µM and the GI50 [40] was 2330 nM. It also gave a TGI [40] of 10.4 µM, a GI50 [41] of 1870 nM and a TGI [41] of 14 µM. The GI50 [42] was 2060 nM, the TGI [42] was > 50 µM and the GI50 [43] was 991 nM. It also gave a TGI [43] of 25.6 µM, a GI50 [44] of 3270 nM and a TGI [44] of 10.1 µM. For the same compound, the GI50 [45] was 2430 nM, the TGI [45] was 20.2 µM and the GI50 [46] was 1510 nM. It also gave a TGI [46] of 7.69 µM, a GI50 [47] of 1800 nM and a TGI [47] of 10.4 µM. For the same compound, the GI50 [48] was 1210 nM, the TGI [48] was 9.54 µM and the GI50 [49] was 1590 nM. It also gave a TGI [49] of 6.99 µM, a GI50 [50] of 1250 nM and a TGI [50] of 24.8 µM. The GI50 [51] was 2110 nM, the TGI [51] was 12.3 µM and the GI50 [52] was 1950 nM. It also gave a TGI [52] of 11.7 µM, a GI50 [53] of 2670 nM and a TGI [53] of 9.83 µM. For the same compound, the GI50 [54] was 967 nM, the TGI [54] was 4.03 µM and the GI50 [55] was 1340 nM. The TGI [55] was 14 µM, the GI50 [56] was 1840 nM and the TGI [56] was 13.5 µM. For the same compound, the GI50 [57] was 1060 nM, the TGI [57] was 3.37 µM and the GI50 [58] was 1620 nM. For the same compound, the TGI [58] was 15.4 µM.
